From PubChem BioAssay AID330 (DTP/NCI, 2004)
Several values for one entry are separate records, joined by “and”; a condition that tells them apart may be missing. Identical values can stand only once. Inconclusive results and toxic doses are left out.

Test system: P388 leukemia ip, CD2F1 mice, survival T/C
Experiment: NCI In Vivo Anticancer Drug Screen. Data for tumor model P388 Leukemia (intraperitoneal) in CD2F1 (CDF1) mice
Conditions: endpoint: median survival time, higher = longer survival
Method in brief: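 Mice carrying the transplanted tumor received test compound or vehicle. Survival was recorded in each group, and the value is the treated-group measurement divided by that of the vehicle-treated control group.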

[1] = dose: 50.0 mg/kg/injection, schedule: Q01DX005 (ip), vehicle: saline with Tween-80
[2] = dose: 100.0 mg/kg/injection, schedule: Q01DX005 (ip), vehicle: saline with Tween-80
[3] = dose: 200.0 mg/kg/injection, schedule: Q01DX005 (ip), vehicle: saline with Tween-80
[4] = dose: 100.0 mg/kg/injection, schedule: Q04DX003 (ip), vehicle: Klucel (hydroxypropylcellulose) (HPC)
[5] = dose: 200.0 mg/kg/injection, schedule: Q04DX003 (ip), vehicle: Klucel (hydroxypropylcellulose) (HPC)
[6] = dose: 400.0 mg/kg/injection, schedule: Q04DX003 (ip), vehicle: Klucel (hydroxypropylcellulose) (HPC)
[7] = dose: 100.0 mg/kg/injection, schedule: Q01DX001 (ip), vehicle: saline with Tween-80
[8] = dose: 200.0 mg/kg/injection, schedule: Q01DX001 (ip), vehicle: saline with Tween-80
[9] = dose: 400.0 mg/kg/injection, schedule: Q01DX001 (ip), vehicle: saline with Tween-80
[10] = dose: 100.0 mg/kg/injection, schedule: Q01DX001 (ip), vehicle: Klucel (hydroxypropylcellulose) (HPC)
[11] = dose: 200.0 mg/kg/injection, schedule: Q01DX001 (ip), vehicle: Klucel (hydroxypropylcellulose) (HPC)
[12] = dose: 100.0 mg/kg/injection, schedule: Q01DX009 (ip), vehicle: saline

In the case of `CC1(C)OC2(C)CCC1C1C2N1C(=O)Nc1cccc(Cl)c1` (stereo not drawn), the T/C [1] is reported as 101 % of control, the T/C [2] is reported as 92 % of control and the T/C [3] is reported as 89 % of control.
In the case of `CC(C)C12OC1C1OC13C1(C)CCC(O)CC1CC1OC13C2O` (stereo not drawn), the T/C (dose: 0.03 mg/kg/injection, schedule: Q01DX009 (ip), vehicle: saline + alcohol) is reported as 103 % of control and 101 % of control and 111 % of control, the T/C (dose: 0.06 mg/kg/injection, schedule: Q01DX009 (ip), vehicle: saline + alcohol) is reported as 102 % of control and 111 % of control and the T/C (dose: 0.12 mg/kg/injection, schedule: Q01DX009 (ip), vehicle: saline + alcohol) is reported as 115 % of control and 109 % of control and 107 % of control. The T/C (dose: 0.25 mg/kg/injection, schedule: Q01DX009 (ip), vehicle: saline + alcohol) was 111 % of control and 106 % of control and 117 % of control, the T/C (dose: 0.5 mg/kg/injection, schedule: Q01DX009 (ip), vehicle: saline + alcohol) was 115 % of control and 109 % of control and the T/C (dose: 1.0 mg/kg/injection, schedule: Q01DX009 (ip), vehicle: saline + alcohol) was 109 % of control and 115 % of control. The T/C (dose: 2.0 mg/kg/injection, schedule: Q01DX009 (ip), vehicle: saline + alcohol) was 111 % of control and 103 % of control and 106 % of control, the T/C (dose: 4.0 mg/kg/injection, schedule: Q01DX009 (ip), vehicle: saline + alcohol) was 103 % of control and 100 % of control and the T/C (dose: 8.0 mg/kg/injection, schedule: Q01DX009 (ip), vehicle: saline + alcohol) was 103 % of control and 100 % of control. The T/C (dose: 16.0 mg/kg/injection, schedule: Q01DX009 (ip), vehicle: saline + alcohol) was 102 % of control and 103 % of control.
In the case of `CN(C)c1ccc2[nH]cc(C(=O)O)c(=O)c2c1`, the T/C (dose: 7.5 mg/kg/injection, schedule: Q01DX005 (ip), vehicle: Klucel (hydroxypropylcellulose) (HPC)) is reported as 99 % of control, the T/C (dose: 15.0 mg/kg/injection, schedule: Q01DX005 (ip), vehicle: Klucel (hydroxypropylcellulose) (HPC)) is reported as 102 % of control and the T/C (dose: 30.0 mg/kg/injection, schedule: Q01DX005 (ip), vehicle: Klucel (hydroxypropylcellulose) (HPC)) is reported as 102 % of control.
`COc1cc(OC)c(C(=O)O)cc1Cl` was tested, and the T/C [4] was 100 % of control, the T/C [5] was 101 % of control and the T/C [6] was 100 % of control.
With `COc1cc(O)c2c(c1O)C1(C)C(=O)CCCC1(O)CC2=O` (stereo not drawn) the T/C [7] was 90 % of control, the T/C [8] was 100 % of control and the T/C [9] was 100 % of control.
With `Cc1c(Cl)cccc1Nc1ncccc1C(=O)O` the T/C [1] was 95 % of control and the T/C [2] was 105 % of control.
In the case of `N=C(N)SCc1ccc2nsnc2c1`, the T/C (dose: 12.5 mg/kg/injection, schedule: Q01DX005 (ip), vehicle: saline with Tween-80) is reported as 98 % of control, the T/C (dose: 25.0 mg/kg/injection, schedule: Q01DX005 (ip), vehicle: saline with Tween-80) is reported as 100 % of control and the T/C [1] is reported as 98 % of control and 102 % of control.
`CSc1ccc(C)cc1C(C)=O` was tested, and the T/C (dose: 50.0 mg/kg/injection, schedule: Q01DX005 (ip), vehicle: acetone) was 93 % of control, the T/C (dose: 100.0 mg/kg/injection, schedule: Q01DX005 (ip), vehicle: acetone) was 99 % of control and the T/C (dose: 200.0 mg/kg/injection, schedule: Q01DX005 (ip), vehicle: acetone) was 100 % of control.
`CCOC(=O)C(=Cc1ccc(OC)c(OC)c1)C(=O)OCC` was tested, and the T/C [1] was 110 % of control, the T/C [2] was 102 % of control and the T/C [3] was 103 % of control.
In the case of `Cc1ccc([N+]([O-])=NC#N)cc1`, the T/C (dose: 7.5 mg/kg/injection, schedule: Q04DX003 (ip), vehicle: Klucel (hydroxypropylcellulose) (HPC)) is reported as 97 % of control, the T/C (dose: 15.0 mg/kg/injection, schedule: Q04DX003 (ip), vehicle: Klucel (hydroxypropylcellulose) (HPC)) is reported as 100 % of control and the T/C (dose: 30.0 mg/kg/injection, schedule: Q04DX003 (ip), vehicle: Klucel (hydroxypropylcellulose) (HPC)) is reported as 112 % of control.
`CCOC(=O)C(N)Cc1ccc(N(CCCl)CCCl)cc1` (stereo not drawn) was tested, and the T/C (dose: 0.5 mg/kg/injection, schedule: Q04DX003 (ip), vehicle: saline) was 180 % of control, the T/C (dose: 1.0 mg/kg/injection, schedule: Q04DX003 (ip), vehicle: saline) was 195 % of control and the T/C (dose: 2.0 mg/kg/injection, schedule: Q04DX003 (ip), vehicle: saline) was 250 % of control. For the same molecule, the T/C (dose: 3.13 mg/kg/injection, schedule: Q01DX009 (ip), vehicle: saline) was 272 % of control, the T/C (dose: 6.25 mg/kg/injection, schedule: Q01DX009 (ip), vehicle: saline) was 100 % of control and the T/C (dose: 6.25 mg/kg/injection, schedule: Q04DX003 (ip), vehicle: saline) was 272 % of control. For the same molecule, the T/C (dose: 12.5 mg/kg/injection, schedule: Q04DX003 (ip), vehicle: saline) was 240 % of control, the T/C (dose: 63.0 micrograms/kg/injection, schedule: Q04DX003 (ip), vehicle: saline) was 113 % of control and the T/C (dose: 125.0 micrograms/kg/injection, schedule: Q04DX003 (ip), vehicle: saline) was 113 % of control.
`CN(C)C(=Nc1ccccc1)OC1=C/C(=C2/C=C(OC(=Nc3ccccc3)N(C)C)N=C2OC(=Nc2ccccc2)N(C)C)C(OC(=Nc2ccccc2)N(C)C)=N1` was tested, and the T/C [10] was 106 % of control, the T/C [11] was 106 % of control and the T/C (dose: 400.0 mg/kg/injection, schedule: Q01DX001 (ip), vehicle: Klucel (hydroxypropylcellulose) (HPC)) was 104 % of control.
In the case of `Cn1c(O)c(N=NC(N)=S)c2ccccc21`, the T/C (dose: 100.0 mg/kg/injection, schedule: Q04DX003 (ip), vehicle: saline with Tween-80) is reported as 95 % of control and the T/C (dose: 200.0 mg/kg/injection, schedule: Q04DX003 (ip), vehicle: saline with Tween-80) is reported as 87 % of control.
With `CCOC1=CS(C)(=O)=NC(SC)=C1C#N` (stereo not drawn) the T/C (dose: 50.0 mg/kg/injection, schedule: Q01DX001 (ip), vehicle: Klucel (hydroxypropylcellulose) (HPC)) was 99 % of control, the T/C [10] was 105 % of control and the T/C [11] was 99 % of control.
`O=c1n(-c2ccccc2)c(=O)n2n1C1C=CC2C23C=CC12CCCC3` (stereo not drawn) was tested, and the T/C [4] was 96 % of control, the T/C [5] was 96 % of control and the T/C [6] was 96 % of control.
With `CCC(C)C(NC(=O)C(C)NC(=O)OCc1ccccc1)C(=O)O` (stereo not drawn) the T/C [1] was 101 % of control, the T/C [2] was 101 % of control and the T/C [3] was 100 % of control.
`C[CH2][Pb]([CH2]C)([CH2]C)[O]C(=O)c1ccccc1` was tested, and the T/C (dose: 0.75 mg/kg/injection, schedule: Q01DX009 (ip), vehicle: Klucel (hydroxypropylcellulose) (HPC)) was 113 % of control, the T/C (dose: 1.5 mg/kg/injection, schedule: Q01DX009 (ip), vehicle: Klucel (hydroxypropylcellulose) (HPC)) was 115 % of control and the T/C (dose: 3.0 mg/kg/injection, schedule: Q01DX009 (ip), vehicle: Klucel (hydroxypropylcellulose) (HPC)) was 123 % of control. For the same molecule, the T/C (dose: 6.0 mg/kg/injection, schedule: Q01DX009 (ip), vehicle: Klucel (hydroxypropylcellulose) (HPC)) was 123 % of control and the T/C (dose: 12.0 mg/kg/injection, schedule: Q01DX009 (ip), vehicle: Klucel (hydroxypropylcellulose) (HPC)) was 97 % of control.
With `CCCCCCCCCCCC(=O)N(CCOC(=O)C(C)(C)C)CCOC(=O)C(C)(C)C` the T/C (dose: 25.0 mg/kg/injection, schedule: Q01DX009 (ip), vehicle: Klucel (hydroxypropylcellulose) (HPC)) was 97 % of control, the T/C (dose: 50.0 mg/kg/injection, schedule: Q01DX009 (ip), vehicle: Klucel (hydroxypropylcellulose) (HPC)) was 104 % of control and 113 % of control and 94 % of control and the T/C (dose: 100.0 mg/kg/injection, schedule: Q01DX009 (ip), vehicle: Klucel (hydroxypropylcellulose) (HPC)) was 100 % of control (2×) and 111 % of control. The T/C (dose: 200.0 mg/kg/injection, schedule: Q01DX009 (ip), vehicle: Klucel (hydroxypropylcellulose) (HPC)) was 99 % of control and 120 % of control and the T/C (dose: 400.0 mg/kg/injection, schedule: Q01DX009 (ip), vehicle: Klucel (hydroxypropylcellulose) (HPC)) was 108 % of control.
In the case of `Cc1c2ccncc2c(C)c2c1[nH]c1cc(O)ccc12`, the T/C (dose: 3.13 mg/kg/injection, schedule: Q04DX003 (ip), vehicle: distilled water + Tween-80) is reported as 104 % of control, the T/C (dose: 6.25 mg/kg/injection, schedule: Q04DX003 (ip), vehicle: distilled water + Tween-80) is reported as 108 % of control and 111 % of control and the T/C (dose: 12.5 mg/kg/injection, schedule: Q04DX003 (ip), vehicle: distilled water + Tween-80) is reported as 122 % of control.
For `C[Si]1(C)CC[Si](C)(C)OS(=O)(=O)CS(=O)(=O)O1`, the T/C (dose: 50.0 mg/kg/injection, schedule: Q01DX005 (ip), vehicle: Klucel (hydroxypropylcellulose) (HPC)) was 100 % of control and the T/C (dose: 100.0 mg/kg/injection, schedule: Q01DX005 (ip), vehicle: Klucel (hydroxypropylcellulose) (HPC)) was 105 % of control.
With `Oc1cc2c(cc1O)CN1CCc3cc(O)c(O)cc3C1C2` (stereo not drawn) the T/C [12] was 114 % of control, the T/C (dose: 200.0 mg/kg/injection, schedule: Q01DX009 (ip), vehicle: saline) was 109 % of control and the T/C (dose: 400.0 mg/kg/injection, schedule: Q01DX009 (ip), vehicle: saline) was 101 % of control.
`CC(=O)OC1COC(n2nnc3c(=O)[nH]cnc32)C(OC(C)=O)C1OC(C)=O` (stereo not drawn) was tested, and the T/C [7] was 103 % of control, the T/C [8] was 103 % of control and the T/C [9] was 103 % of control.
In the case of `CCc1cc(-n2c3c(CC)c(=O)c(CC)cc-3nc3ccccc32)cc(CC)c1O`, the T/C (dose: 25.0 mg/kg/injection, schedule: Q01DX009 (ip), vehicle: saline) is reported as 98 % of control, the T/C (dose: 50.0 mg/kg/injection, schedule: Q01DX009 (ip), vehicle: saline) is reported as 109 % of control and the T/C [12] is reported as 105 % of control.
